Results published in BindingDB's records for doi:10.1006/jmbi.2000.3966 (Max-Planck-Institut Fuer Biochemie, 2000).

What was measured:
Experiment in all cases: Determination of Inhibition Constants
Conditions in all cases: pH 8; 25 °C
Serine protease 1 = molecular target: T1, Serine protease 1 (Bos taurus, UniProt P00760)
T1 sequence (P00760 whole entry): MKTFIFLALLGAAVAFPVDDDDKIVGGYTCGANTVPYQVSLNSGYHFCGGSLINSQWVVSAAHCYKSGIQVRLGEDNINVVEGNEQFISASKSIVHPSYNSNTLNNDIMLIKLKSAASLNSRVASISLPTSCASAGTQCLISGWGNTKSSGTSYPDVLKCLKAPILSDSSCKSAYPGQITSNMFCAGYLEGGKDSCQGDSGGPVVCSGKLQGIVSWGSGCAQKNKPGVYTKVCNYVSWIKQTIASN
Method: (§1) The measurements were carried out on a microplate reader. Two concentrations of the substrate and five concentrations of the inhibitor were used in the assay. […] The Ki-values were calculated according to Dixon using a linear regression program. The Ki-values reported are means from at least three determinations.

[1] = molecular target: Tissue-type plasminogen activator (Homo sapiens, UniProt P00750)
Method: as §1

[2] = molecular target: Urokinase-type plasminogen activator (Homo sapiens, UniProt P00749)
Method: as §1

Tissue-type plasminogen activator, sequence (P00750 whole entry): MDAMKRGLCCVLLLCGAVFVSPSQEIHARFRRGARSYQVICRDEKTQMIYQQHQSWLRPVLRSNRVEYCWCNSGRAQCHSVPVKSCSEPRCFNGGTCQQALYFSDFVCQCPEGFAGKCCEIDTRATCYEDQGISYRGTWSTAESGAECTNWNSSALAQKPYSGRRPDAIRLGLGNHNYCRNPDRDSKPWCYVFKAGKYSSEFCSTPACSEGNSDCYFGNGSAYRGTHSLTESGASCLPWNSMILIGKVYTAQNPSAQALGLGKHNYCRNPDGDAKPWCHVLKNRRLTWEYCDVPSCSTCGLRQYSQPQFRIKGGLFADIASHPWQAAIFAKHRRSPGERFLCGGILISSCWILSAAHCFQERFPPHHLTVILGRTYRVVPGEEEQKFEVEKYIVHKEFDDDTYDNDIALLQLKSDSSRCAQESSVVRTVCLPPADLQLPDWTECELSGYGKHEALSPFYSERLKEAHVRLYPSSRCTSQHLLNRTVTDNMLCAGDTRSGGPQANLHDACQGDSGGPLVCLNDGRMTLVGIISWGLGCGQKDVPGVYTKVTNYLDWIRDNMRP

## NC(N)=Nc1ccc(CNC(=O)NC23CC4CC(CC(C4)C2)C3)cc1 [3-adamantan-1-yl-1-[(4-carbamimidamidophenyl)methyl]urea]
Serine protease 1
  Ki: 46 µM
[1]
  Ki: > 1000 µM
[2]
  Ki: 2.4 µM

## CC(C)c1cc(C(C)C)c(S(=O)(=O)N[C@@H](Cc2cccc(C(=N)N)c2)C(=O)N2CCN(C(=O)CCN)CC2)c(C(C)C)c1 [3-[3-(4-beta-alanylpiperazin-1-yl)-3-oxo-2-({[2,4,6-tris(1-methylethyl)phenyl]sulfonyl}amino)propyl]benzenecarboximidamide]
Serine protease 1
  Ki: 0.6 µM
[1]
  Ki: 8.7 µM

## N=C(N)NC(=O)c1nc(Cl)c(N)nc1N [3,5-diamino-N-carbamimidoyl-6-chloropyrazine-2-carboxamide]
Serine protease 1
  Ki: 32 µM
[1]
  Ki: > 1000 µM

## CCOC(=O)N1CCN(C(=O)C(Cc2cccc(C(=N)N)c2)NS(=O)(=O)c2c(C(C)C)cc(C(C)C)cc2C(C)C)CC1 (stereo not given)
Serine protease 1
  Ki: 0.037 µM
[1]
  Ki: 4.9 µM
[2]
  Ki: 0.41 µM
